Among the data in patent US9394282B2, “Pyrazole carboxamides as Janus kinase inhibitors” (Merck Sharp & Dohme Corp., priority 2011, dated 2016) are IC50 values, retold here.

For this assay, the target named is JAK1 (Homo sapiens (Human), UniProt P23458). In words: Jak biochemical HTRF assay, JAK1. The settings on record: recombinant purified GST-tagged catalytic domain; HTRF format; [ATP] 31.8 μM. The source says:
Jak Biochemical HTRF Assay Protocol
Subsequent reagent additions employed an Agilent Bravo.
In general terms: In TR-FRET formats the signal depends on donor and acceptor labels being close together.

Each structure is given as a SMILES string. pIC50: −log10 of the molar value.

Sequence of JAK1 (P23458 875-1153): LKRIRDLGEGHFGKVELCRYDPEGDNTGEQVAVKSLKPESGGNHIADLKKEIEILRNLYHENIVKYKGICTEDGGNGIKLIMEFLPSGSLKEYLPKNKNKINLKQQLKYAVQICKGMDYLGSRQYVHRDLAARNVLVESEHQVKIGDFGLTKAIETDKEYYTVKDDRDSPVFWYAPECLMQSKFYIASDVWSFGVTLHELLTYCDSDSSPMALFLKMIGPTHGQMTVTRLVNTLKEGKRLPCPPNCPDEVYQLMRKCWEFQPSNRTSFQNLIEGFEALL

The term pIC50 denotes −log10 of the IC50, conventionally taken in molar units. As for `CC(C)(C)CCOC(=O)N1CC[C@@H](C#N)C(n2cc(C(N)=O)c(Nc3ccc(F)cc3)n2)C1` (mixture of isomers) [Example 4, 3,3-Dimethylbutyl(3S,4R and 3R,4S)-3-{4-carbamoyl-3-[(4-fluorophenyl)amino]-1H-pyrazol-1-yl}-4-cyanopiperidine-1-carboxylate], the pIC50 is 8.10. With `N#C[C@@H]1CN(C(=O)OCCN2CCOCC2)CC[C@H]1n1cc(C(N)=O)c(Nc2ccc(F)cc2)n1` (racemic) [Example 5-4, 2-morpholin-4-ylethyl (3R,4R and 3S,4S)-4-{4-carbamoyl-3-[(4-fluorophenyl)amino]-1H-pyrazol-1-yl}-3-cyanopiperidine-1-carboxylate], the negative logarithm of the IC50 (pIC50) was 7.54. With `CC(C)(C#N)COC(=O)N1CC[C@@H](n2cc(C(N)=O)c(Nc3ccc(F)cc3)n2)[C@H](C#N)C1` (racemic) [Example 5-6, 2-cyano-2-methylpropyl (3R,4R and 3S,4S)-4-{4-carbamoyl-3-[(4-fluorophenyl)amino]-1H-pyrazol-1-yl}-3-cyanopiperidine-1-carboxylate] the figure was 7.82; with `N#C[C@@H]1CN(C(=O)OC2CCCC2)CC[C@H]1n1cc(C(N)=O)c(Nc2ccc(F)cc2)n1` (racemic) [Example 5-11, cyclopentyl (3R,4R and 3S,4S)-4-{4-carbamoyl-3-[(4-fluorophenyl)amino]-1H-pyrazol-1-yl}-3-cyanopiperidine-1-carboxylate], 7.54; with `N#C[C@@H]1CN(C(=O)OC2CCOCC2)CC[C@H]1n1cc(C(N)=O)c(Nc2ccc(F)cc2)n1` (racemic) [Example 5-13, tetrahydro-2H-pyran-4-yl (3R,4R and 3S,4S)-4-{4-carbamoyl-3-[(4-fluorophenyl)amino]-1H-pyrazol-1-yl}-3-cyanopiperidine-1-carboxylate], 7.70.

With `N#C[C@@H]1CN(C(=O)OCCN2CCCC2=O)CC[C@H]1n1cc(C(N)=O)c(Nc2ccc(F)cc2)n1` (racemic) [Example 5-15, 2-(2-oxopyrrolidin-1-yl)ethyl (3R,4R and 3S,4S)-4-{4-carbamoyl-3-[(4-fluorophenyl)amino]-1H-pyrazol-1-yl}-3-cyanopiperidine-1-carboxylate], the pIC50 was 7.72. Consider `N#C[C@@H]1CN(C(=O)OCC(F)F)CC[C@H]1n1cc(C(N)=O)c(Nc2ccc(F)cc2)n1` (racemic) [Example 5-16, 2,2-difluoroethyl (3R,4R and 3S,4S)-4-{4-carbamoyl-3-[(4-fluorophenyl)amino]-1H-pyrazol-1-yl}-3-cyanopiperidine-1-carboxylate], for which the pIC50 was 8.10. With `CC(C)(C)COC(=O)N1CC[C@@H](n2cc(C(N)=O)c(Nc3ccc(F)cc3)n2)[C@H](C#N)C1` (racemic) [Example 5-18, 2,2-dimethylpropyl (3R,4R and 3S,4S)-4-{4-carbamoyl-3-[(4-fluorophenyl)amino]-1H-pyrazol-1-yl}-3-cyanopiperidine-1-carboxylatc], the pIC50 was 6.88. In the case of `CCOC(=O)N1CC[C@@H](n2cc(C(N)=O)c(Nc3ccc(F)cc3)n2)[C@H](C#N)C1` (racemic) [Example 5-23, ethyl (3R,4R and 3S,4S)-4-{4-carbamoyl-3-[(4-fluorophenyl)amino]-1H-pyrazol-1-yl}-3-cyanopiperidine-1-carboxylate], the negative logarithm of the IC50 (pIC50) was 8.00. With `N#C[C@@H]1CN(C(=O)OC2CCOC2)CC[C@H]1n1cc(C(N)=O)c(Nc2ccc(F)cc2)n1` (mixture of isomers) [Example 5-25, tetrahydrofuran-3-yl (3R,4R and 3S,4S)-4-{4-carbamoyl-3-[(4-fluorophenyl)amino]-1H-pyrazol-1-yl}-3-cyanopiperidine-1-carboxylate] the figure was 7.92. Turning to `CC(C)(COC(=O)N1CC[C@@H](n2cc(C(N)=O)c(Nc3ccc(F)cc3)n2)[C@H](C#N)C1)n1cccn1` (racemic) [Example 5-27, 2-methyl-2-(1H-pyrazol-1-yl)propyl (3R,4R and 3S,4S)-4-{4-carbamoyl-3-[(4-fluorophenyl)amino]-1H-pyrazol-1-yl}-3-cyanopiperidine-1-carboxylate], the pIC50 was 7.04.

Regarding `N#C[C@@H]1CN(C(=O)OCC(F)(F)F)CC[C@H]1n1cc(C(N)=O)c(Nc2ccc(F)cc2)n1` (racemic) [Example 5-28, 2,2,2-trifluoroethyl (3R,4R and 3S,4S)-4-{4-carbamoyl-3-[(4-fluorophenyl)amino]-1H-pyrazol-1-yl}-3-cyanopiperidine-1-carboxylate], the pIC50 was 8.00.

With `CCOC(=O)COC(=O)N1CC[C@@H](n2cc(C(N)=O)c(Nc3ccc(F)cc3)n2)[C@H](C#N)C1` (racemic) [Example 5-38, 2-ethoxy-2-oxoethyl (3R,4R and 3S,4S)-4-{4-carbamoyl-3-[(4-fluorophenyl)amino]-1H-pyrazol-1-yl}-3-cyanopiperidine-1-carboxylate], the negative logarithm of the IC50 (pIC50) is 8.52. Turning to `N#CCC1(COC(=O)N2CC[C@@H](n3cc(C(N)=O)c(Nc4ccc(F)cc4)n3)[C@H](C#N)C2)CC1` (racemic) [Example 5-39, [1-(cyanomethyl)cyclopropyl]methyl (3R,4R and 3S,4S)-4-{4-carbamoyl-3-[(4-fluorophenyl)amino]-1H-pyrazol-1-yl}-3-cyanopiperidine-1-carboxylate], the pIC50 is 7.60. Regarding `CCOC(=O)N1CC[C@H](n2cc(C(N)=O)c(Nc3ccc(F)cc3)n2)[C@H](C#N)C1` (racemic) [Example 5-44, ethyl (3R,4S and 3S,4R)-4-{4-carbamoyl-3-[(4-fluorophenyl)amino]-1H-pyrazol-1-yl}-3-cyanopiperidine-1-carboxylate], the pIC50 is 6.70. Regarding `N#C[C@@H]1CN(C(=O)OC2CCCC2)CC[C@@H]1n1cc(C(N)=O)c(Nc2ccc(F)cc2)n1` (racemic) [Example 5-49, cyclopentyl (3R,4S and 3S,4R)-4-{4-carbamoyl-3-[(4-fluorophenyl)amino]-1H-pyrazol-1-yl}-3-cyanopiperidine-1-carboxylate], the pIC50 was 6.59. Next, `CC(C)(C)COC(=O)N1CC[C@H](n2cc(C(N)=O)c(Nc3ccc(F)cc3)n2)[C@H](C#N)C1` (racemic) [Example 5-50, 2,2-dimethylpropyl (3R,4S and 3S,4R)-4-{4-carbamoyl-3-[(4-fluorophenyl)amino]-1H-pyrazol-1-yl}-3-cyanopiperidine-1-carboxylate]: 6.20. Next, `N#C[C@@H]1CN(C(=O)OC2CCOC2)CC[C@@H]1n1cc(C(N)=O)c(Nc2ccc(F)cc2)n1` (mixture of isomers) [Example 5-51, tetrahydrofuran-3-yl (3R,4S and 3S,4R)-4-{4-carbamoyl-3-[(4-fluorophenyl)amino]-1H-pyrazol-1-yl}-3-cyanopiperidine-1-carboxylate]: 6.67. With `CC(C)(COC(=O)N1CC[C@H](n2cc(C(N)=O)c(Nc3ccc(F)cc3)n2)[C@H](C#N)C1)n1cccn1` (racemic) [Example 5-53, 2-methyl-2-(1H-pyrazol-1-yl)propyl (3R,4S and 3S,4R)-4-{4-carbamoyl-3-[(4-fluorophenyl)amino]-1H-pyrazol-1-yl}-3-cyanopiperidine-1-carboxylate], the negative-log IC50 (pIC50) is 6.35. On to `CCOC(=O)COC(=O)N1CC[C@H](n2cc(C(N)=O)c(Nc3ccc(F)cc3)n2)[C@H](C#N)C1` (racemic) [Example 5-59, 2-ethoxy-2-oxoethyl (3R,4S and 3S,4R)-4-{4-carbamoyl-3-[(4-fluorophenyl)amino]-1H-pyrazol-1-yl}-3-cyanopiperidine-1-carboxylate], for which the pIC50 is 6.49.

For the compound `N#C[C@@H]1CN(C(=O)OC2CCOCC2)CC[C@@H]1n1cc(C(N)=O)c(Nc2ccc(F)cc2)n1` (racemic) [Example 5-60, tetrahydro-2H-pyran-4-yl (3R,4S and 3S,4R)-4-{4-carbamoyl-3-[(4-fluorophenyl)amino]-1H-pyrazol-1-yl}-3-cyanopiperidine-1-carboxylate], the pIC50 was 6.45. For `N#CCC1(COC(=O)N2CC[C@H](n3cc(C(N)=O)c(Nc4ccc(F)cc4)n3)[C@H](C#N)C2)CC1` (racemic) [Example 5-64, [1-(cyanomethyl)cyclopropyl]methyl (3R,4S and 3S,4R)-4-{4-carbamoyl-3-[(4-fluorophenyl)amino]-1H-pyrazol-1-yl}-3-cyanopiperidine-1-carboxylate], the pIC50 is 6.36. Turning to `N#C[C@@H]1CN(C(=O)OCC(F)F)CC[C@@H]1n1cc(C(N)=O)c(Nc2ccc(F)cc2)n1` (racemic) [Example 5-65, 2,2-difluoroethyl (3R,4S and 3S,4R)-4-{4-carbamoyl-3-[(4-fluorophenyl)amino]-1H-pyrazol-1-yl}-3-cyanopiperidine-1-carboxylate], the negative-log IC50 (pIC50) is 7.08.

With `N#C[C@@H]1CN(C(=O)OCC(F)(F)F)CC[C@@H]1n1cc(C(N)=O)c(Nc2ccc(F)cc2)n1` (racemic) [Example 5-66, 2,2,2-trifluoroethyl (3R,4S and 3S,4R)-4-{4-carbamoyl-3-[(4-fluorophenyl)amino]-1H-pyrazol-1-yl}-3-cyanopiperidine-1-carboxylate], the pIC50 is 7.08. As to `N#C[C@@H]1CCN(C(=O)OCC(F)(F)F)CC1n1cc(C(N)=O)c(Nc2ccc(F)cc2)n1` (mixture of isomers) [Example 5-78, 2,2,2-trifluoroethyl (3S,4R and 3R,4S)-3-{4-carbamoyl-3-[(4-fluorophenyl)amino]-1H-pyrazol-1-yl}-4-cyanopiperidine-1-carboxylate], the pIC50 was 8.40. As to `N#C[C@@H]1CCN(C(=O)OC2CCOCC2)CC1n1cc(C(N)=O)c(Nc2ccc(F)cc2)n1` (mixture of isomers) [Example 5-85, tetrahydro-2H-pyran-4-yl (3S,4R and 3R,4S)-3-{4-carbamoyl-3-[(4-fluorophenyl)amino]-1H-pyrazol-1-yl}-4-cyanopiperidine-1-carboxylate], the pIC50 is 8.22. Turning to `N#C[C@@H]1CCN(C(=O)OCCN2CCOCC2)CC1n1cc(C(N)=O)c(Nc2ccc(F)cc2)n1` (mixture of isomers) [Example 5-87, 2-morpholin-4-ylethyl (3S,4R and 3R,4S)-3-{4-carbamoyl-3-[(4-fluorophenyl)amino]-1H-pyrazol-1-yl}-4-cyanopiperidine-1-carboxylate], the pIC50 was 8.40.
